Measurements reported in patent US20230271964A1, “5-AMINO-8-(4-PYRIDYL)-[1,2,4]TRIAZOLO[4,3-C]PYRIMIDIN-3-ONE COMPOUNDS FOR USE AGAINST CANCER” (ASTRAZENECA AB, priority 2020, published 2023).

Legend:
[1] = target: human CB1 receptor (Homo sapiens (Human), UniProt P21554); assay: CB1 receptor antagonism, agonist-induced cAMP modulation (HTRF) in transfected CHO cells; type: cell-based; conditions: read-out: Antag IC50
Protocol: Receptor antagonism: Evaluation of the antagonist activity of compounds at the human CB1 receptor expressed in transfected CHO cells, determined by measuring their effects on agonist-induced cAMP modulation using the HTRF detection method.
Thereafter, the reference agonist CP 55940 and the adenylyl cyclase activator NKH 477 are added at respective final concentrations of 3 nM and 3 µM.
For basal control measurements, CP 55940 is omitted from the wells containing 3 µM AM 281.
Following 20 min incubation at 37° C., the cells are lysed and the fluorescence acceptor (D2-labeled cAMP) and fluorescence donor (anti-cAMP antibody labeled with europium cryptate) are added.
After 60 min at room temperature, the fluorescence transfer is measured at λex=337 nm and λem=620 and 665 nm using a microplate reader (Rubystar, BMG). The cAMP concentration is determined by dividing the signal measured at 665 nm by that measured at 620 nm (ratio).
The standard reference antagonist is AM 281, which is tested in each experiment at several concentrations to generate a concentration-response curve from which its IC50 value is calculated.

[2] = target: human CB-1 cannabinoid receptor (Homo sapiens (Human), UniProt P21554); assay: CB-1 receptor radioligand binding assay, [3H]CP 55940, transfected CHO cell membranes; conditions: 0.5 nM [3H]CP 55940, CHO cell membranes, 120 min at 37° C.
Protocol: Nonspecific binding is determined in the presence of 10 µM WIN 55212-2.
Following incubation, the samples are filtered rapidly under vacuum through glass fiber filters (GF/B, Packard) presoaked with 0.3% PEI and rinsed several times with an ice-cold buffer containing 50 mM Tris-HCl (pH 7.4) and 0.5% BSA using a 96-sample cell harvester (Unifilter, Packard). The filters are dried then counted for radioactivity in a scintillation counter (Topcount, Packard) using a scintillation cocktail (Microscint 0, Packard).
The standard reference compound is CP 55940 which is tested in each experiment at several concentrations to obtain a competition curve from which its IC50 is calculated.

[3] = target: human adenosine A2A receptor (Homo sapiens (Human), UniProt P29274); assay: Adenosine receptor inhibition binding assay, [3H]ZM241385, HEK293 A2A receptor membranes; conditions: 1 nM [3H]ZM241385, HEK293-hA2A membranes, 25° C., 1 h, Ki from IC50 by Cheng-Prusoff
How it was run: (§1)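 Membranes from BacMam-transduced HEK293 cells (0.2 µg A2A; 1.4 µg A1) incubated 1 h at 25 °C with 1 nM radioligand; A2A in 50 mM Tris-HCl pH 7.4, A1 buffer adds 100 mM NaCl, 10 mM MgCl2. Nonspecific binding: 1 µM CGS 15943 (A2A) or 1 µM DPCPX (A1). Filtration, scintillation counting; IC50 converted to Ki via Cheng-Prusoff.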

[4] = target: human adenosine A1 receptor (Homo sapiens (Human), UniProt P30542); assay: Adenosine receptor inhibition binding assay, [3H]DPCPX, A1 receptor membranes; conditions: 1 nM [3H]DPCPX, 25° C., 1 h, Ki from IC50 by Cheng-Prusoff
How it was run: as §1

Chain of human adenosine A2A receptor (P29274 whole entry): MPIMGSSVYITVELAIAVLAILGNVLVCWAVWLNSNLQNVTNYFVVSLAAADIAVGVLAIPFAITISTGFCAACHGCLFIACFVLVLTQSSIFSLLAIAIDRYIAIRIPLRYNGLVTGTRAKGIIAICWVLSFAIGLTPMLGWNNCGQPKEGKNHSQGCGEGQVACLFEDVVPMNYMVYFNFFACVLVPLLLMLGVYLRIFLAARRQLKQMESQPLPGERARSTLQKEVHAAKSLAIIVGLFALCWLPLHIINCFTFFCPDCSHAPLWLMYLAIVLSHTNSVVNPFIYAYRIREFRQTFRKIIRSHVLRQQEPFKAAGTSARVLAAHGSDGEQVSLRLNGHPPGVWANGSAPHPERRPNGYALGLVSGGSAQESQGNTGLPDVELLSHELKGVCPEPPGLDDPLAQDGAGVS
Chain of human CB-1 cannabinoid receptor (P21554 whole entry): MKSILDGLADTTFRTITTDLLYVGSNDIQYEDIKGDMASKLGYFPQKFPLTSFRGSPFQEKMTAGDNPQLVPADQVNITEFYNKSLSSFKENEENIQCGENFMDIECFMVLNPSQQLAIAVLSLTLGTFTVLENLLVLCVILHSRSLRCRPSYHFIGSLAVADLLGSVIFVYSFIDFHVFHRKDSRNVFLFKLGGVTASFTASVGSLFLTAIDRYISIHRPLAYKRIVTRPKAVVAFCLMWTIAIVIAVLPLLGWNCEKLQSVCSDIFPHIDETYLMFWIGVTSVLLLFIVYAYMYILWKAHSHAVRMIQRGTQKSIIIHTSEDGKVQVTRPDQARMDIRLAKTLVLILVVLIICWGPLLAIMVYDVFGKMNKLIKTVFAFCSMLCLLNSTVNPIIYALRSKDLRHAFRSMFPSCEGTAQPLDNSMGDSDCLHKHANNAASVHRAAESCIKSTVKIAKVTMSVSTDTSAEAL
Chain of human CB1 receptor (P21554 whole entry): as above
Chain of human adenosine A1 receptor (P30542 whole entry): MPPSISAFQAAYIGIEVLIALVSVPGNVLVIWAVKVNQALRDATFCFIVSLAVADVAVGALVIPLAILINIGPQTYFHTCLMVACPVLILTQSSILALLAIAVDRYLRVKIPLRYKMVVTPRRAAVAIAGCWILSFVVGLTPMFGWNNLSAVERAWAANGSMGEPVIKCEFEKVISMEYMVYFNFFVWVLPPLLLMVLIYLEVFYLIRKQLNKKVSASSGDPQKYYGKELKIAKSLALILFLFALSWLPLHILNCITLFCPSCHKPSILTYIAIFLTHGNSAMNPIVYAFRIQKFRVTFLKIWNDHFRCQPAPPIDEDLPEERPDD

SMILES	IC50 [1] [µM]	Ki [2] [µM]	A2A pKi [3]	A1 pKi [4]	Ki ([3]; read-out: A2A pKi (converted)) [µM]	Ki ([4]; read-out: A1 pKi (converted)) [µM]
Cc1cc(-c2c(-c3ccccc3)nc(N)n3c(=O)n(Cc4cc(C)on4)nc23)cc(C)n1 [Example 1-14, 5-amino-8-(2,6-dimethyl-4-pyridyl)-2-[(5-methylisoxazol-3-yl)methyl]-7-phenyl-[1,2,4]triazolo[4,3-c]pyrimidin-3-one]	29.2	50.5	9.2	6.6	–	–
Cc1cc(-c2c(-c3ccccc3)nc(N)n3c(=O)n(Cc4ncoc4C)nc23)cc(C)n1 [Example 1-22, 5-amino-8-(2,6-dimethyl-4-pyridyl)-2-[(5-methyloxazol-4-yl)methyl]-7-phenyl-[1,2,4]triazolo[4,3-c]pyrimidin-3-one]	> 100	29.6	10.1	7.4	–	–
Cc1cc(-c2c(-c3ccc(F)cc3)nc(N)n3c(=O)n(Cc4ncoc4C)nc23)cc(C)n1 [Example 1-31, 5-amino-8-(2,6-dimethyl-4-pyridyl)-7-(4-fluorophenyl)-2-[(5-methyloxazol-4-yl)methyl]-[1,2,4]triazolo[4,3-c]pyrimidin-3-one]	12.1	26.1	9.6	7.0	–	–
Cc1cc(-c2c(-c3ccccc3)nc(N)n3c(=O)n(Cc4cc(C)on4)nc23)cc(CO)n1 [Example 1-43, 5-amino-8-[2-(hydroxymethyl)-6-methyl-4-pyridyl]-2-[(5-methylisoxazol-3-yl)methyl]-7-phenyl-[1,2,4]triazolo[4,3-c]pyrimidin-3-one]	> 100	86.9	9.1	6.7	–	–
Cc1cc(-c2c(-c3ccc(F)cc3)nc(N)n3c(=O)n(Cc4nccn4C)nc23)cc(CO)n1 [Example 1-50, 5-amino-7-(4-fluorophenyl)-8-[2-(hydroxymethyl)-6-methyl-4-pyridyl]-2-[(1-methylimidazol-2-yl)methyl]-[1,2,4]triazolo[4,3-c]pyrimidin-3-one]	> 100	86.1	9.5	6.5	–	–
Cc1cc(-c2c(-c3ccc(F)cc3)nc(N)n3c(=O)n(Cc4ncoc4C)nc23)cc(CO)n1 [Example 1-51, 5-amino-7-(4-fluorophenyl)-8-[2-(hydroxymethyl)-6-methyl-4-pyridyl]-2-[(5-methyloxazol-4-yl)methyl]-[1,2,4]triazolo[4,3-c]pyrimidin-3-one]	> 100	80.3	9.4	6.4	–	–
COc1cc(-c2c(-c3ccccc3)nc(N)n3c(=O)n(Cc4ncoc4C)nc23)cc(CO)n1 [Example 1-60, 5-amino-8-[2-(hydroxymethyl)-6-methoxy-4-pyridyl]-2-[(5-methyloxazol-4-yl)methyl]-7-phenyl-[1,2,4]triazolo[4,3-c]pyrimidin-3-one]	> 100	66.7	9.9	6.8	–	–
COc1cc(-c2c(-c3ccc(F)cc3)nc(N)n3c(=O)n(Cc4ncoc4C)nc23)cc(CO)n1 [Example 1-64, 5-amino-7-(4-fluorophenyl)-8-[2-(hydroxymethyl)-6-methoxy-4-pyridyl]-2-[(5-methyloxazol-4-yl)methyl]-[1,2,4]triazolo[4,3-c]pyrimidin-3-one]	> 100	40.8	9.6	6.5	–	–
Cc1cc(-c2c(-c3ccccc3)nc(N)n3c(=O)n(C[C@H]4CC(F)(F)CN4C)nc23)cc(C)n1 [Example 2-14, 5-amino-2-[[(2R)-4,4-difluoro-1-methyl-pyrrolidin-2-yl]methyl]-8-(2,6-dimethyl-4-pyridyl)-7-phenyl-[1,2,4]triazolo[4,3-c]pyrimidin-3-one]	35.8	36.4	–	–	0.00316	0.1
Cc1cc(-c2c(-c3ccccc3)nc(N)n3c(=O)n(C(CN)C4CCOC4)nc23)cc(C)n1 (centres unmarked) [Example 2-15, 5-amino-2-(2-amino-1-tetrahydrofuran-3-yl-ethyl)-8-(2,6-dimethyl-4-pyridyl)-7-phenyl-[1,2,4]triazolo[4,3-c]pyrimidin-3-one]	> 100	–	7.5	5.7	–	–
Cc1cc(-c2c(-c3ccccc3)nc(N)n3c(=O)n(C[C@@H]4CCCO4)nc23)cc(CO)n1 [Example 2-28, 5-amino-8-[2-(hydroxymethyl)-6-methyl-4-pyridyl]-7-phenyl-2-[[(2S)-tetrahydrofuran-2-yl]methyl]-[1,2,4]triazolo[4,3-c]pyrimidin-3-one]	> 100	–	9.1	6.5	–	–
Cc1cc(-c2c(-c3ccccc3)nc(N)n3c(=O)n(C[C@H]4CCCO4)nc23)cc(CO)n1 [Example 2-29, 5-amino-8-[2-(hydroxymethyl)-6-methyl-4-pyridyl]-7-phenyl-2-[[(2R)-tetrahydrofuran-2-yl]methyl]-[1,2,4]triazolo[4,3-c]pyrimidin-3-one]	> 100	–	9.3	6.4	–	–
Nc1nc(-c2ccccc2)c(-c2cc(Cl)nc(CO)c2)c2nn(C[C@H]3CCCO3)c(=O)n12 [Example 2-32, 5-amino-8-[2-chloro-6-(hydroxymethyl)-4-pyridyl]-7-phenyl-2-[[(2R)-tetrahydrofuran-2-yl]methyl]-[1,2,4]triazolo[4,3-c]pyrimidin-3-one]	> 100	–	9.6	6.6	–	–
COc1cc(-c2c(-c3ccccc3)nc(N)n3c(=O)n(C[C@H]4CCCO4)nc23)cc(CO)n1 [Example 2-35, 5-amino-8-[2-(hydroxymethyl)-6-methoxy-4-pyridyl]-7-phenyl-2-[[(2R)-tetrahydrofuran-2-yl]methyl]-[1,2,4]triazolo[4,3-c]pyrimidin-3-one]	> 100	–	9.2	5.9	–	–
Nc1nc(-c2ccccc2)c(-c2cc(CO)nc(C(F)(F)F)c2)c2nn(C[C@H]3CCCO3)c(=O)n12 [Example 2-38, 5-amino-8-[2-(hydroxymethyl)-6-(trifluoromethyl)-4-pyridyl]-7-phenyl-2-[[(2R)-tetrahydrofuran-2-yl]methyl]-[1,2,4]triazolo[4,3-c]pyrimidin-3-one]	> 100	–	8.9	6.3	–	–
Cc1cc(-c2c(-c3ccccc3)nc(N)n3c(=O)n(CCN4CCCC4c4cccs4)nc23)cc(C)n1 (centres unmarked) [Example 3-1, 5-amino-8-(2,6-dimethyl-4-pyridyl)-7-phenyl-2-[2-[2-(2-thienyl)pyrrolidin-1-yl]ethyl]-[1,2,4]triazolo[4,3-c]pyrimidin-3-one]	10.1	29.2	8.9	7.6	–	–
Cc1cc(-c2c(-c3ccccc3)nc(N)n3c(=O)n(CC4CCCN4Cc4ccccc4CN)nc23)cc(C)n1 (centres unmarked) [Example 3-4, 5-amino-2-[[1-[[2-(aminomethyl)phenyl]methyl]pyrrolidin-2-yl]methyl]-8-(2,6-dimethyl-4-pyridyl)-7-phenyl-[1,2,4]triazolo[4,3-c]pyrimidin-3-one]	> 100	76.4	8.4	6.3	–	–
